This is an account of results in PubChem BioAssay (NCI).

Structures are written as SMILES. Values joined by “and” are separate entries in the source; they are usually repeats but may differ in a detail not shown here. Equal entries are not always repeated.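 Compound exposure: 48 hours, 5 concentrations, 96-well plates. Here, GI50 denotes the concentration required for 50% inhibition of growth. TGI denotes the concentration required for complete inhibition of growth.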 Bounds are passed on as bounds.

Holding throughout (assay): NCI-60 cell line screen, 48 h
For assay [1], the system named is LOX IMVI melanoma.
Assay [2] has as its system MALME-3M melanoma.
Assay [3] has as its system MDA-MB-435.
Assay [4] relates to NCI-H23 lung.
The subject of assay [5] is OVCAR-3 ovarian.
For assay [6], the system named is OVCAR-8 ovarian.
The test system of assay [7] is SK-MEL-5 melanoma.
Assay [8] deals with SNB-75 CNS.
In assay [9] the test system is TK-10 renal.
Assay [10] relates to UACC-257 melanoma.

Regarding `O=C(/C=C\n1cnc(-c2cc(C(F)(F)F)cc(C(F)(F)F)c2)n1)NNc1cnccn1`, the GI50 in assay [1] was 0.0446 µM; in [2] it was 0.135 µM; in assay [3], 0.0533 µM; in assay [4], 0.0661 µM; in assay [5] it was 0.0574 µM; in assay [6] it was 0.0769 µM. For the same compound, the GI50 in assay [7] is 0.151 µM; in assay [8] it was 0.118 µM; in assay [9], 0.466 µM; in assay [10] it was 0.188 µM. For the same compound, the TGI was 1.5 µM in assay [1]; 10.5 µM in [2]; 1.24 µM in assay [3]; 15.7 µM in assay [4]; 4.03 µM in assay [5]; 36.5 µM in assay [6]. In addition, the TGI was 2.22 µM in assay [7], 1.97 µM in assay [8], 16.5 µM in assay [9] and 16.6 µM in assay [10].
In the case of `CCCCN1CSC(=S)N(Cc2ccccc2)C1`, the TGI in [1] was over 100 µM; in assay [2] it was over 93.5 µM; in [3], over 100 µM; in assay [4], over 100 µM; in assay [5], over 69.8 µM; in assay [6] it was over 100 µM. Also, the TGI in [7] is 67.5 µM; in [8], over 100 µM; in [9], over 100 µM; in assay [10], 60.2 µM.
Turning to `COc1cc2c3c(n(CCNCCCNCCn4c5c(c6cc(OC)c(OC)cc6c4=O)C(=O)c4ccccc4-5)c(=O)c2cc1OC)-c1ccccc1C3=O`, the GI50 in assay [1] is 0.0293 µM; in assay [2], 0.884 µM; in assay [3], 1.02 µM; in assay [4], 1.2 µM; in assay [5], 0.149 µM; in [6], 0.0355 µM. Besides, the GI50 in assay [7] is 4.93 µM; in assay [8], 1.6 µM; in assay [9], 2.9 µM; in assay [10], 73.3 µM. The TGI in [1] amounted to 0.413 µM; in assay [2], 6.19 µM; in assay [3], 2.55 µM; in assay [4] it was 17 µM; in [5] it was 1.17 µM; in assay [6] it was 5.82 µM. The TGI in assay [7] is 22.5 µM; in [8], 6.81 µM; in [9], 21.7 µM; in [10], over 100 µM.
For `C/C(=N\Nc1ccc(Cl)cn1)c1ccccn1`, the GI50 in assay [1] is 0.113 µM; in assay [2] it was 0.111 µM; in assay [3], 0.382 µM; in assay [4], 0.0674 µM; in assay [6] it was 0.0704 µM; in assay [7], 0.343 µM. The GI50 in assay [8] was 0.208 µM; in [9], 2.06 µM; in assay [10], 0.117 µM. Also, the TGI in assay [1] was over 24.2 µM; in [2], 44.1 µM; in [3] it was over 100 µM; in assay [4], over 100 µM; in assay [5], 14.9 µM; in assay [6], over 100 µM. Moreover, the values for the TGI in [7], in assay [8] and in assay [9] were 5.48 µM, over 76.2 µM and 97.7 µM, respectively.
Regarding `CCN(CC)CCCC(C)Nc1cnc(C(=O)Nc2cccc3ccc(OC)nc23)cn1` (stereo not given), the GI50 is 1.77 µM in [1]; 1.75 µM in assay [2]; 1.77 µM in assay [3]; 2.44 µM in assay [4]; 2.24 µM in [5]; 2.74 µM in assay [6]. Besides, the GI50 is 1.77 µM in assay [7], 10.6 µM in [8], 15.4 µM in [9] and 2.43 µM in assay [10]. For the same compound, the TGI in assay [1] turned out to be 3.34 µM; in [2], 3.22 µM; in assay [3], 3.24 µM; in assay [4], 5.63 µM; in assay [5] it was 5.24 µM; in assay [6], 8.41 µM. The TGI in [7] is 3.21 µM; in [8], 22.8 µM; in assay [9], 29.7 µM; in assay [10], 5.98 µM.
In the case of `CC(C)(C)c1ccc(O)c(CN(Cc2cc(C(C)(C)C)ccc2O)c2ccccc2)c1`, the TGI turned out to be 26.8 µM in assay [1]; 29.9 µM in [2]; 36.4 µM in assay [3]; 40.8 µM in [4]; 34.1 µM in assay [5]; 37.5 µM in assay [6]. The TGI is 28.5 µM in [7], 52.4 µM in assay [8], 31.5 µM in assay [9] and 12.4 µM in [10].
As for `C/C=C(\C)CC/C=C/CO[Si](C)(C)C(C)(C)C`, the TGI was 49.9 µM in [1]; over 100 µM in assay [2]; over 100 µM in [3]; over 100 µM in assay [4]; over 100 µM in assay [5]; over 100 µM in assay [6]. Besides, the TGI in assay [7], in assay [8], in assay [9] and in [10] was over 100 µM in each case.
As to `COC(=O)[C@H](Cc1c[nH]c2ccccc12)NC(=O)[C@@H](OC)[C@@H]1Cc2cc3cc(OC4CC(OC5CC(O)C(O)C(C)O5)C(O)C(C)O4)c(C)c(O)c3c(O)c2C(=O)[C@H]1OC1CC(OC2CC(OC3CC(C)(O)C(O)C(C)O3)C(O)C(C)O2)C(O)C(C)O1` (stereo not given in full), the GI50 in assay [1] was 0.00391 µM; in [2], 0.0039 µM; in assay [3] it was 0.00784 µM; in assay [4] it was 0.00614 µM; in assay [5], 0.00701 µM; in assay [6] it was 0.0097 µM. For the same compound, the GI50 was 0.00621 µM in assay [7], 0.00465 µM in [8], 0.0651 µM in assay [9] and 0.00662 µM in [10]. Moreover, the TGI in [1] was 0.0111 µM; in assay [2] it was 0.0184 µM; in [3], 0.0394 µM; in assay [4], 0.0506 µM; in assay [5] it was 0.112 µM; in assay [6], over 16.5 µM. Also, the TGI is 0.0308 µM in assay [7], 0.0244 µM in assay [8], over 6.46 µM in [9] and 0.124 µM in [10].
`COc1cc(NS(=O)(=O)c2ccc(-c3cnc(C4CC4)o3)cc2)ccc1F`: the GI50 in [1] is 0.534 µM; in [2], 0.56 µM; in [3], 0.0498 µM; in assay [4] it was 0.989 µM; in assay [5] it was 0.437 µM; in [6], 0.745 µM. Besides, the GI50 in assay [7] was 0.638 µM; in assay [8], 0.158 µM; in assay [9], 7.88 µM; in [10], 2.43 µM. The TGI in assay [1] is 17.9 µM; in assay [2], 33.9 µM; in [3] it was 0.634 µM; in [4], 21.4 µM; in assay [5] it was 16 µM; in [6], 56.5 µM. Besides, the TGI in assay [7] came to 13.1 µM; in [8] it was 0.604 µM; in [9] it was 53.9 µM; in [10], 33.9 µM.
Take `COc1cc2c3c(n(C)c(=O)c2cc1OC)-c1cc2c(cc1/C3=C\CNCCCN)OCO2`: the GI50 in assay [1] is 0.162 µM; in assay [2] it was 0.144 µM; in [3] it was 1.02 µM; in [4] it was 0.437 µM; in assay [5], 1.37 µM; in [6], 0.13 µM. In addition, the GI50 in assay [7] is 1.03 µM; in [8], 0.923 µM; in assay [9] it was 0.981 µM; in [10], 0.907 µM. The TGI in assay [1] was 2.23 µM; in [2], 0.591 µM; in [3], 5.72 µM; in assay [4], 3.15 µM; in [5] it was 7.66 µM; in assay [6] it was 1.05 µM. Besides, the TGI in assay [7] turned out to be 2.71 µM; in [8], 9.47 µM; in assay [9] it was 7.47 µM; in [10], 2.76 µM.
`COc1ccccc1Cn1cc2c(c1-c1ccccc1)CCc1cnoc1-2`: the GI50 in [1] was 3.04 µM; in assay [2] it was 1.39 µM; in assay [3], 0.279 µM; in assay [4], 3.36 µM; in [5], 1.23 µM; in assay [6], 6.22 µM. The GI50 in [7] was 1.93 µM; in assay [8], 2.42 µM; in [9], 4.32 µM; in assay [10], 20.2 µM. Also, the TGI is over 100 µM in assay [1]; over 100 µM in assay [2]; 1.44 µM in assay [3]; 74 µM in [4]; 4.32 µM in assay [5]; over 100 µM in assay [6]. Moreover, the TGI is 11.2 µM in assay [7], 7.34 µM in assay [8], over 100 µM in [9] and over 100 µM in [10].
Take `NCCCn1c2c(c3ccc([N+](=O)[O-])cc3c1=O)C(=O)c1cc(Br)ccc1-2`: the GI50 was 0.00683 µM in assay [1]; 0.103 µM in assay [2]; 0.267 µM and 0.162 µM in [3]; 0.0289 µM and 0.0213 µM in [4]; 0.254 µM in [5]; 0.0271 µM in [6]. Also, the GI50 in assay [7] was 0.0265 µM and 0.0338 µM; in assay [8], 0.00281 µM; in [9], 0.267 µM and 0.28 µM; in [10] it was 0.456 µM. Besides, the TGI in [1] is 0.109 µM and 0.0227 µM; in [3] it was 1.36 µM; in assay [4], 0.118 µM and 0.151 µM; in assay [6], 0.188 µM; in assay [7], 0.15 µM and 0.251 µM; in [8], 0.0298 µM. For the same compound, in assay [9], the TGI is 0.942 µM.
For `CCc1oc2ccccc2c1C(=O)c1cc(I)c(O)c(I)c1`, the GI50 was 3.51 µM in [1]; 1.41 µM in assay [2]; 0.327 µM in [3]; 3.91 µM in assay [4]; 2.04 µM in [5]; 4.9 µM in assay [6]. Moreover, the GI50 was 3.2 µM in assay [7], 1.54 µM in assay [8], 9.81 µM in [9] and 6.13 µM in assay [10]. Besides, the TGI in assay [1] turned out to be 17.1 µM; in assay [2], 7.9 µM; in [3] it was 1.4 µM; in assay [4], 17.4 µM; in [5], 5.12 µM; in assay [6], 28.5 µM. Also, the TGI in [7] was determined as 13.9 µM; in assay [8] it was 6.43 µM; in assay [9], 23.4 µM; in [10], 21.1 µM.
With `COc1cc2c3c(n(CCCCOC(=O)C(Cl)(Cl)Cl)c(=O)c2cc1OC)-c1cc2c(cc1C3=O)OCO2`, the GI50 is 35.9 µM in assay [1]; over 100 µM in assay [2]; over 100 µM in assay [3]; 92 µM in [4]; over 100 µM in [5]; 27.9 µM in assay [6]. Moreover, the GI50 in assay [7], in assay [8], in [9] and in assay [10] was over 100 µM in each case. Also, the TGI in [1], in [2], in assay [3], in [4], in assay [5] and in assay [6] was over 100 µM each time. The TGI in assay [7], in assay [8], in assay [9] and in assay [10] was over 100 µM throughout.
For the compound `Cn1cnc([N+](=O)[O-])c1[Se]c1nc(N)nc2c1ncn2C1OC(CO)C(O)C1O` (stereo not given), the TGI in assay [1], in assay [2], in assay [3], in assay [4], in assay [5] and in [6] was over 100 µM each time. In addition, the TGI in [7], in assay [8], in [9] and in assay [10] was over 100 µM in each case.
`COc1ccc(-c2nnc(COc3ccc(NC(=O)Nc4ccc(Cl)c(C(F)(F)F)c4)cc3F)o2)cc1`: the GI50 in [1] is 2.93 µM; in assay [2] it was 2.72 µM; in assay [3], 3.8 µM; in [4] it was 3.12 µM; in assay [5], 3.02 µM; in assay [6], 3.12 µM. Besides, the GI50 in [7] was 2.1 µM; in assay [8] it was 1.48 µM; in assay [9], 9.09 µM; in [10], 2.41 µM. The TGI was over 100 µM in assay [1]; 7.63 µM in assay [2]; 36.9 µM in [3]; 14.6 µM in assay [4]; 10.5 µM in [5]; 15.8 µM in assay [6]. Moreover, the TGI in assay [7] is 5.36 µM; in assay [8] it was 8.36 µM; in [9], 41.4 µM; in [10], 11.2 µM.
